US20230129788A1, “GLP-1/GLP-2 DUAL AGONISTS” (Zealand Pharma A/S, priority 2020, published 2023)
Starred links: 1 amine or outer side, 2 acyl side, 3 side chain; linkers in the order of their positions; H or OH if unused. Non-standard residues stand in square brackets, D forms with d. Groups on a side chain read outwards from the residue. *: point of attachment. C18 diacid = O=C(O)CCCCCCCCCCCCCCCCC(=O)*; γGlu = O=C(O)[C@H](CCC(=O)[*:2])N[*:1]; Aib = CC(C)(N)C(=O)O

Experiments:
[1] = tested on: Total Parental Nutrition (TPN) Piglet Model; test: Small intestine mass (weight per centimeter) in total parenteral nutrition (TPN) piglet model; format: in vivo; conditions: piglets on TPN
Experimental: (§1) One-week-old piglets were placed in heated (25-30° C.) cages. Jugular and duodenal catheters were surgically implanted as described in paragraph 2 (method and material) in Jain 2015. Subsequently, preconditioned jackets and ambulatory pumps for TPN (total parenteral nutrition) delivery were fitted. Animals were started on their randomly assigned groups to receive enteral nutrition (EN; n=11), intravenous total parenteral nutrition plus vehicle (TPN; n=8) or TPN plus compound 18 (Cpd 18; n=13). Cpd 18 and vehicle were administered as daily subcutaneous injections at a dose of either 0.008 mg/kg (n=2), 0.033 mg/kg (n=2), 0.066 mg/kg (n=2) or 0.133 mg/kg (n=7).
(§2) Enteral animals (EN) received a swine milk replacement formula (formula LitterLife as described in Jain 2015, paragraph 2.6). All other animals received total parenteral nutrition (Clinimix E from Baxter as described in Jain 2015, paragraph 2.6).
Post-euthanasia (see Jain 2015, paragraph 2.7), the abdomen was opened, and the small intestine was removed. Small segments of the small bowel were sliced and weighed (see Jain 2015, paragraph 2.78). Tissue was then cut into smaller pieces, preserved for histology and snap-frozen in liquid nitrogen to be stored at −80° C. for analysis.

[2] = tested on: Total Parental Nutrition (TPN) Piglet Model; test: Histology of small bowel, villous/crypt (V/C) ratio, in total parenteral nutrition (TPN) piglet model; format: in vivo, piglets
Experimental: as §1, §2
Segments of fresh tissue (2-3 cm) from the small intestine were fixed in 4% buffered formalin for 24 hours and then stored in 70% ethanol at room temperature for 24 hours. […] Using the small-bowel H&E slides, the mean villous height and crypt depth were quantified in vertically well-oriented villous-crypt columns with the slide reviewer blinded to the treatment to compute a villous/crypt (V/C) ratio for animals in each group.

Substance: H-H[Aib]EGSFTSELATILDK([γGlu-C18 diacid])QAARDFIAWLIQHKITD-OH [Cpd 18]
- mass of the proximal intestine (weight per centimeter) ([1]; daily subcutaneous injections 0.008, 0.033, 0.066 or 0.133 mg/kg, sacrifice on day 14, FIG. 1): preserved the mass in a dose-dependent fashion
- mass of the distal intestine (weight per centimeter) ([1]; daily subcutaneous injections 0.008, 0.033, 0.066 or 0.133 mg/kg, sacrifice on day 14, FIG. 2): preserved the mass in a dose-dependent fashion
- weight of the proximal intestine at the highest dose compared to animals on EN ([1]; highest dose (0.133 mg/kg daily s.c.), sacrifice on day 14, FIG. 1): approximately the same as in the animals on EN
- weight of the distal intestine at the highest dose, greater than that in the animals on TPN ([1]; highest dose (0.133 mg/kg daily s.c.), sacrifice on day 14, FIG. 2): approximately 50%
- histological section of the small bowel, villi and crypts ([2]; piglet on TPN, 0.133 mg/kg for 14 days, FIG. 6 compared to FIG. 4): villi and crypts are comparable to the animal receiving enteral nutrition
- V/C ratio of the small bowel ([2]; piglets on TPN, 0.133 mg/kg daily s.c., sacrifice on day 14, FIG. 3): completely preserved the V/C ratio to the same ratio seen in the animals on EN
